Data from patent US10975068B2, “6-aminopyridin-3-yl thiazoles as modulators of RORγT” (Janssen Pharmaceutica NV, priority 2016, dated 2021).
Where two headings read alike, the source gives them in different places.

How the values were obtained:
[1] = biological target: human RORγt ligand binding domain (RORγt LBD) (Homo sapiens (Human), UniProt P51449); test: RORγt ThermoFluor® assay (thermal shift binding); settings: read-out: ThermoFluor® Assay, Kd
Summary of the method: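 His-tagged human RORγt LBD (0.065 mg/mL) with 60 μM 1,8-ANS in 100 mM Hepes pH 7.0, 10 mM NaCl, 2.5 mM GSH, 0.002% Tween-20 was heated at 1 °C/min.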

[2] = biological target: full-length human RORγt (Homo sapiens (Human), UniProt P51449); test: RORγt (full-length human) reporter assay, Conditions B or C; format: cell-based; settings: for RORγt (FL) Reporter Assay B or C, % inhibition (value marked *): marked *: footnote not given; for inhibition at 3 µM: at 3 μM compound concentration, read-out: RORγt (FL) Reporter Assay B or C, % inhibition
full-length human RORγt, sequence (P51449 other isoform, or with tags, fused parts or gaps): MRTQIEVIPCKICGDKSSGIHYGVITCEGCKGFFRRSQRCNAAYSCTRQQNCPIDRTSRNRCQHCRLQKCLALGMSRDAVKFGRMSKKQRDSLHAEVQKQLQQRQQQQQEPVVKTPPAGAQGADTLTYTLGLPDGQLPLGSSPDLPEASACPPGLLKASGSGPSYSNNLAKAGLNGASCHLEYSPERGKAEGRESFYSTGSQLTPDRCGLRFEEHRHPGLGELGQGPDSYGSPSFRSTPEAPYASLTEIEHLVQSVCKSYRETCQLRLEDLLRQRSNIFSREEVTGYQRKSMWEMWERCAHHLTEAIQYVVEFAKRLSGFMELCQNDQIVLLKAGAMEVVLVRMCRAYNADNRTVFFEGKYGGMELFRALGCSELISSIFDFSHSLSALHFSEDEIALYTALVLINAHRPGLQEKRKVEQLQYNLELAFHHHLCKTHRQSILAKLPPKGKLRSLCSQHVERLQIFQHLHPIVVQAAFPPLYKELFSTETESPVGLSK
Summary of the method: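 HEK293T cells transiently co-transfected with GAL4-DBD–full-length human RORγt (nt 142-1635, NM_001001523.1) plus GAL4-firefly and CMV-Renilla luciferase reporters; compounds added 4-6 h post-transfection for 16-20 h in 1.3% FBS, 0.1% DMSO. Firefly signal normalized to DMSO and saturating reference compound, then to Renilla; IC50 from concentration plots.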

[3] = Conditions B or C, read-out: RORγt (FL) Reporter Assay B or C, IC50
[4] = read-out: RORγt (FL) Reporter Assay B or C, IC50

human RORγt ligand binding domain (RORγt LBD), sequence (P51449 other isoform, or with tags, fused parts or gaps): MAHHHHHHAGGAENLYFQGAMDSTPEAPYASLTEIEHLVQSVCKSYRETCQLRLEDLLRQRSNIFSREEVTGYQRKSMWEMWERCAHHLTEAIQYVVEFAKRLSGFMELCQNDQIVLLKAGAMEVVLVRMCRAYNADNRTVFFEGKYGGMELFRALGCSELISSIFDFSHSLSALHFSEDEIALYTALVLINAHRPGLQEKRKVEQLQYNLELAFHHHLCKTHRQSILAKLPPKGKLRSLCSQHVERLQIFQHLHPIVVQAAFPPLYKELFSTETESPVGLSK

Row | SMILES | Kd [1] [nM] | RORγt (FL) Reporter Assay B or C, % inhibition (value marked *) ([2]; Conditions B or C) | IC50 [2, 3] [µM] | inhibition at 3 µM [2] [%] | IC50 [2, 4] [µM] | inhibition at 6 µM ([2]; read-out: RORγt (FL) Reporter Assay B or C, % inhibition @ 6 μM, Conditions B or C, @ 6 μM) [%] | RORγt (FL) Reporter Assay B or C, % inhibition (value marked ***) ([2]; Conditions B or C, marked ***: footnote not given) | IC50 ([2]; RORγt (FL) Reporter Assay B or C, IC50 (μM), Conditions B or C) [µM]
1 | [2H]C([2H])(NC(=O)c1nc(C(=O)N2CCC[C@@H]2C)c(-c2cnc(NC(C)(C)C)cc2C(F)(F)F)s1)C(C)(C)O [Example 181, (S)-5-(6-(tert-Butylamino)-4-(trifluoromethyl)pyridine-3-yl)-N-(2-hydroxy-2-methylpropyl-1,1-d2)-4-(2-methylpyrrolidine-1-carbonyl)thiazole-2-carboxamide] | 1.1 | 112* % | 0.0085 |  |  |  |  | 
2 | C[C@H]1CC(F)(F)CN1C(=O)c1nc(C(=O)NC2COCC2O)sc1-c1cnc(NC2(C)CCC2)cc1C(F)(F)F (stereo partly drawn) [Example 182, 4-((S)-4,4-Difluoro-2-methylpyrrolidine-1-carbonyl)-N-(cis-4-hydroxytetrahydrofuran-3-yl)-5-(6-((1-methylcyclobutyl)amino)-4-(trifluoromethyl)pyridine-3-yl)thiazole-2-carboxamide] | 0.12 | 99* % | 0.0081 |  |  |  |  | 
3 | C[C@H]1CCCN1C(=O)c1nc(C(=O)NC2CCS(=O)(=O)CC2)sc1-c1cnc(NC(C)(C)C)cc1C(F)(F)F [Example 254, 5-[6-(tert-Butylamino)-4-(trifluoromethyl)-3-pyridyl]-N-(1,1-dioxothian-4-yl)-4-[(2S)-2-methylpyrrolidine-1-carbonyl]thiazole-2-carboxamide] | 0.25 |  |  | 107 | 0.016 |  |  | 
4 | CC[C@H](Nc1cc(C(F)F)c(-c2sc(C(=O)NC3CS(=O)(=O)C3)nc2C(=O)N2CCC[C@@H]2C)cn1)C(F)(F)F [Example 240, 5-[4-(Difluoromethyl)-6-[[(1S)-1-(trifluoromethyl)propyl]amino]-3-pyridyl]-N-(1,1-dioxothietan-3-yl)-4-[(2S)-2-methylpyrrolidine-1-carbonyl]thiazole-2-carboxamide] | 2.5 | 107* % | 0.057 |  |  |  |  | 
5 | C[C@H]1CCCN1C(=O)c1nc(C(=O)NCC(C)(C)O)sc1-c1cnc(NCC(C)(C)C)cc1C(F)F [Example 113, (S)-5-(4-(Difluoromethyl)-6-(neopentylamino)pyridin-3-yl)-N-(2-hydroxy-2-methylpropyl)-4-(2-methylpyrrolidine-1-carbonyl)thiazole-2-carboxamide] | 6 | 110* % | 0.063 |  |  |  |  | 
6 | C[C@H](Nc1cc(C(F)F)c(-c2sc(C(=O)N[C@@H]3CCC[C@H]3O)nc2C(=O)N2CC(F)(F)C[C@@H]2C)cn1)C(F)(F)F [Example 420, 4-[(2S)-4,4-Difluoro-2-methyl-pyrrolidine-1-carbonyl]-5-[4-(difluoromethyl)-6-[[(1S)-2,2,2-trifluoro-1-methyl-ethyl]amino]-3-pyridyl]-N-[(1R,2R)-2-hydroxycyclopentyl]thiazole-2-carboxamide] | 0.73 |  |  | 103 | 0.032 |  |  | 
7 | CC[C@H](Nc1cc(C(F)F)c(-c2sc(C(=O)N[C@H](C)CO)nc2C(=O)N2CCC[C@@H]2C)cn1)C(F)(F)F [Example 234, 5-[4-(Difluoromethyl)-6-[[(1S)-1-(trifluoromethyl)propyl]amino]-3-pyridyl]-N-[(1R)-2-hydroxy-1-methyl-ethyl]-4-[(2S)-2-methylpyrrolidine-1-carbonyl]thiazole-2-carboxamide] | 5.2 | 116* % | 0.042 |  |  |  |  | 
8 | CC[C@@H](Nc1cc(C(F)F)c(-c2sc(C(=O)N[C@H]3C[C@H](O)C3)nc2C(=O)N2CCC[C@@H]2C)cn1)C(F)(F)F [Example 205, 5-(4-(Difluoromethyl)-6-(((1R)-1-(trifluoromethyl)propyl)amino)-3-pyridyl)-N-((1r,3S)-3-hydroxycyclobutyl)-4-((2S)-2-methylpyrrolidine-1-carbonyl)thiazole-2-carboxamide] | 6.8 | 103* % | 0.033 |  |  |  |  | 
9 | CC[C@H](Nc1cc(C(F)F)c(-c2sc(C(=O)N3CC4CCC(C3)O4)nc2C(=O)N2CCC[C@@H]2C)cn1)C(F)(F)F [Example 378, [5-[4-(Difluoromethyl)-6-[[(1S)-1-(trifluoromethyl)propyl]amino]-3-pyridyl]-2-(8-oxa-3-azabicyclo[3.2.1]octane-3-carbonyl)thiazol-4-yl]-[(2S)-2-methylpyrrolidin-1-yl]methanone] | 18 |  |  | 109 | 0.079 |  |  | 
10 | C[C@H](NC(=O)c1nc(C(=O)N2CCC[C@@H]2C)c(-c2cnc(NC(C)(C)C)cc2C(F)F)s1)C(C)(C)O [Example 270, 5-[6-(tert-Butylamino)-4-(difluoromethyl)-3-pyridyl]-N-[(1S)-2-hydroxy-1,2-dimethyl-propyl]-4-[(2S)-2-methylpyrrolidine-1-carbonyl]thiazole-2-carboxamide] | 3.5 |  |  | 102 | 0.0051 |  |  | 
11 | CC(Nc1cc(C(F)(F)F)c(-c2sc(C(=O)NCC(C)(C)O)nc2C(=O)N2CCCC[C@@H]2C)cn1)C(F)(F)F (stereo partly drawn) [Example 33, N-(2-Hydroxy-2-methylpropyl)-4-((S)-2-methylpiperidine-1-carbonyl)-5-(4-(trifluoromethyl)-6-((1,1,1-trifluoropropan-2-yl)amino)pyridin-3-yl)thiazole-2-carboxamide] | 0.43 |  | 0.0052 |  |  | 109 |  | 
12 | C[C@H]1CC(F)(F)CN1C(=O)c1nc(C(=O)N[C@H]2COC[C@H]2O)sc1-c1cnc(NC2(C)CCC2)cc1C(F)(F)F (relative stereo) [Example 184, 4-((S)-4,4-Difluoro-2-methylpyrrolidine-1-carbonyl)-N-((3S*,4S*)-4-hydroxytetrahydrofuran-3-yl)-5-(6-((1-methylcyclobutyl)amino)-4-(trifluoromethyl)pyridine-3-yl)thiazole-2-carboxamide] | 0.7 | 92* % | 0.049 |  |  |  |  | 
13 | CC(C)[C@@H](C)Nc1cc(C(F)F)c(-c2sc(C(=O)NCC(C)(C)O)nc2C(=O)N2CCC[C@@H]2C)cn1 [Example 297, 5-(4-(Difluoromethyl)-6-(((R)-3-methylbutan-2-yl)amino)pyridine-3-yl)-N-(2-hydroxy-2-methylpropyl)-4-((S)-2-methylpyrrolidine-1-carbonyl)thiazole-2-carboxamide] | 18 |  |  | 110 | 0.05 |  |  | 
14 | C[C@H]1CCCN1C(=O)c1nc(C(=O)NCC(C)(C)O)sc1-c1cnc(NC2(C(F)(F)F)CC2)cc1C(F)(F)F [Example 147, (S)—N-(2-Hydroxy-2-methylpropyl)-4-(2-methylpyrrolidine-1-carbonyl)-5-(4-(trifluoromethyl)-6-((1-(trifluoromethyl)cyclopropyl)amino)pyridin-3-yl)thiazole-2-carboxamide] | 9.4 |  | 0.12 |  |  |  | 94*** % | 
15 | C[C@H](Nc1cc(C(F)(F)F)c(-c2sc(C(=O)NCC(C)(C)O)nc2C(=O)N2C3CCC2CC3)cn1)C(F)(F)F [Example 82, 4-((1s,4s)-7-Azabicyclo[2.2.1]heptane-7-carbonyl)-N-(2-hydroxy-2-methylpropyl)-5-(4-(trifluoromethyl)-6-(((S)-1,1,1-trifluoropropan-2-yl)amino)pyridin-3-yl)thiazole-2-carboxamide] | 4.8 | 117* % |  |  |  |  |  | 0.079
